Like-named read-outs stand apart in the source and are kept apart here. Bridges are numbered along the chain shown (N, C = ends). Where no end group is shown, it is not given here.
What was measured:
patients = conditions: cited from earlier work
[1] = test system: sedated Non Human Primate; assay: IV infusion in the sedated Non Human Primate: blood pressure and heart rate (Example 1); type: in vivo; conditions: at the 28 ng dose
CRLR/RAMP1 receptor [2] = target: T1, CRLR/RAMP1 receptor (Homo sapiens, UniProt O60894+Q16602); assay: CRE-luciferase assay in HEK293T cells transfected with CRLR and RAMP1; type: cell-based; conditions: for activity and potency in binding to the CGRP receptor, CRE-Luciferase assay: compared to h-α-CGRP and h-β-CGRP as controls
T1 construct: All of the full-length cDNAs were subcloned into pcDNA3.1 expression vectors; expressed in transfected cells; host or cells: HEK293T, transient calcium phosphate transfection, pcDNA3.1 vectors
T1 sequence (Q16602 23-461): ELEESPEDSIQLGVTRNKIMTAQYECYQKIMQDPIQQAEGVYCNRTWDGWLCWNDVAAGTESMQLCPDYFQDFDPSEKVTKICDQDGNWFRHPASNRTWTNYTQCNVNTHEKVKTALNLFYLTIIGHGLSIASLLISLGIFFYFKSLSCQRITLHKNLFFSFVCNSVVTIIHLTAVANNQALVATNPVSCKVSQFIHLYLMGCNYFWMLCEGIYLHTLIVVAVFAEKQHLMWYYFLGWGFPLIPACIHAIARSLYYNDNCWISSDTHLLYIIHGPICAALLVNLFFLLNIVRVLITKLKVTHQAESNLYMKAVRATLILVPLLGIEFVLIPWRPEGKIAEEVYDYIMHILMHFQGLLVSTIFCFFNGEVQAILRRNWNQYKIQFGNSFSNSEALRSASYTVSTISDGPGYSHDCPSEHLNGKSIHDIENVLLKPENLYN
T1 sequence (O60894 27-148): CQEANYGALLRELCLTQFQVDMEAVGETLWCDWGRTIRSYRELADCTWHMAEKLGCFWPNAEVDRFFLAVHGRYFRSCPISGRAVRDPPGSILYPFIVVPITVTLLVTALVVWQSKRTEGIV
Description: The expression vectors for RAMP1, RAMP2, RAMP3, CRLR, CRE-Luc and SRE-Luc were constructed as previously described (McLatchie L. M., et al. (1998) Nature 393:333-339). Human CRLR, RAMP1, and RAMP2 full-length cDNAs were cloned by RT-PCR using RNA obtained from HEK293T cells and CRLR, RAMP1, and RAMP2-specific primers. Human RAMP3 full-length cDNAs were cloned by RT-PCR using RNA from human kidney and RAMP3 specific primers. All of the full-length cDNAs were subcloned into pcDNA3.1 expression vectors.
Human embryonic kidney 293T cells (HEK293T) were maintained in Dulbecco's modified Eagle's medium supplemented with 10% fetal calf serum, 2 mM glutamine, […], at 37° C. in a humidified atmosphere of 95% air and 5% CO2. Transient transfections were performed using calcium phosphate co-precipitation (Mellon P. L., et al. (1981) Cell 27:279-288). Cells in six-well plates or 100-mm Petri dishes were grown to 70% confluence and transfected with 0.1 μg of DNA for CRLR, 0.05 μg for RAMPs or 1 μg for CRE-Luc and SRE-Luc per cm^2. The total amount of DNA transfected in each condition was kept constant by adding empty pcDNA3.1 vector when needed. Twenty hours after transfection, the medium was replaced with fresh medium containing 5 mM sodium butyrate for 24 h and then replaced for an additional 24 h with fresh medium without sodium butyrate. All of the experiments were performed 72 h after transfection to allow correct glycosylation and cell surface targeting of CRLR and RAMPs.
After exposure to various concentrations of CGRP or the CGRP analogs, the cells were lysed and assayed for CRE- or SRE-luciferase activity using the luciferase assay system (Promega), and luminescence was measured using a 96-well luminometer.
The mechanism of action for CGRP at the CRLR/RAMP1 receptor is known to up-regulate cAMP through the gs pathway, and to a lesser extent [Ca^2+] through the gq pathway. […] It is the cAMP pathway that is the primary mechanism of action of CGRP for vasodilation, cardio/renoprotection and immunomodulation.

CRLR/RAMP1 receptor [3] = target: CRLR/RAMP1 receptor (human, UniProt Q16602 23-461; O60894 27-148); assay: cell-based or functional assay
CRLR/RAMP1 receptor (human, UniProt Q16602 23-461; O60894 27-148), sequence (Q16602 23-461, chain 1 of 2): as the sequence (Q16602 23-461) above
CRLR/RAMP1 receptor (human, UniProt Q16602 23-461; O60894 27-148), sequence (O60894 27-148, chain 2 of 2): as the sequence (O60894 27-148) above

[4] = Anand et al.: short-term IV infusions (10 or 20 minutes) at 0.8, 3.2, or 16 ng/kg/min
[5] = Sekhar et al.: 8 ng/kg/min by IV infusion for 8 hours
[6] = Stephenson et al.: 600 ng/min, 2-8 hour infusions for two consecutive days

Molecule: CGRP
- hemodynamic effects (patients; [4]): beneficial hemodynamic effects such as decreased systemic vascular resistance and increase in cardiac output
- tachycardia (patients; [4]): no tachycardia observed
- renal blood flow and glomerular filtration (patients; Sekhar et al.: 8 ng/kg/min by IV infusion for 8 hours, during treatment): increased
- hemodynamic effects (patients; [5]): beneficial hemodynamic effects such as decreased pulmonary and systemic arterial pressure, decreased vascular resistance and increased cardiac output
- time after stopping infusion within which hemodynamic effects were lost (patients; [5]): ≤ 30 min
- side effects of pulsed therapy (patients; [6]): unfavorable side effects of tachycardia and neurohumoral response were also observed
- tolerability and hemodynamic functions, pulsed therapy (patients; [6]): well tolerated and was observed to improve hemodynamic functions such as left ventricular function
- tolerability of continuous infusion therapy (patients; Stephenson et al.: 600 ng/min, 48-hour continuous IV-infusion): infusion was discontinued after 28 hours in 3 out of the 6 patients due to nausea, diarrhea, and/or severe facial flushing

Molecule: Cyc-ACDTATCVTHRLADLLSRSGGVVKSNFVPTNVGSKAF-NH2 (disulfide 2-7 (inferred)) [Peptide IX]
- Heart rate (HR) effect [1]: increased heart rate but less than CGRP
- potency in CRE-Luciferase assay (CRLR/RAMP1 receptor [2]; at a concentration of 10^−10 molar): more potent
- activity and potency in binding to the CGRP receptor, CRE-Luciferase assay (CRLR/RAMP1 receptor [2]): as equally active and potent as h-α-CGRP and h-β-CGRP

Molecule: Cyc-ACDTATCVTHRLAGLLSRSGGVVKSNFVPTNVGSKAF-NH2 (disulfide 2-7 (inferred)) [Peptide III]
- Heart rate (HR) effect [1]: increased heart rate but less than CGRP
- activity and potency in binding to the CGRP receptor, CRE-Luciferase assay (CRLR/RAMP1 receptor [2]): as equally active and potent as h-α-CGRP and h-β-CGRP

B1: Peptide III, [Ser25] h-α-CGRP (peptide)
peptide: ACDTATCVTHRLAGLLSRSGGVVKSNFVPTNVGSKAF-NH2
modifications: disulfide 2-7 (inferred); also: acetate salt
- CRE-Luciferase assay: concentration at which receptors were saturated (CRLR/RAMP1 receptor [3]): 100 nM

B2: Peptide V, [Asn3, Ser25] h-α-CGRP (peptide)
peptide: ACNTATCVTHRLAGLLSRSGGVVKSNFVPTNVGSKAF-NH2
modifications: disulfide 2-7 (inferred); also: acetate salt
- CRE-Luciferase assay: concentration at which receptors were saturated (CRLR/RAMP1 receptor [3]): 100 nM

B3: Peptide IX, [Asp14, Ser25] h-α-CGRP (peptide)
peptide: ACDTATCVTHRLADLLSRSGGVVKSNFVPTNVGSKAF-NH2
modifications: disulfide 2-7 (inferred); also: acetate salt
- CRE-Luciferase activity at 10^-10 molar, fold over analogs III and V, h-α-CGRP and h-β-CGRP (CRLR/RAMP1 receptor [3]): 1.5 fold
- CRE-Luciferase assay: concentration at which receptors were saturated (CRLR/RAMP1 receptor [3]): 100 nM

— US20110150980A1, “CGRP ANALOG” (VasoGenix Pharmaceuticals, Inc., priority 2009, published 2011)
